Experimental data published in patent US20240294551A1 (AMGEN INC., priority 2022, published 2024).

Columns and labels:
[1] = molecular target: His-tagged KRAS G12D protein (Homo sapiens (Human), UniProt P01116, G12D); test: KRAS G12D TR-FRET Assay; format: binding; details: read-out: KRAS G12D Binding IC50
Method in brief: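 His-tagged KRAS G12D (diluted to 20 nM in pH 7.4 HEPES buffer with 10 mM MgCl2 and 10 μM GDP) was preincubated with titrated compound for 30 min at room temperature. Biotinylated KRPep-2d peptide (diluted to 20 nM) was then added for 1 h, and displacement was monitored by TR-FRET.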

[2] = molecular target: GDP-bound KRAS protein (aa 1-169), containing both G12D and C118A amino acid substitutions (Homo sapiens (Human), UniProt P01116, C118A/G12D); test: KRAS G12D Coupled Nucleotide Exchange Assay; format: biochemical; details: read-out: KRAS G12D Coupled Exchange IC50
Chain of GDP-bound KRAS protein (aa 1-169), containing both G12D and C118A amino acid substitutions (P01116 other isoform, or with tags, fused parts or gaps G12D/C118A): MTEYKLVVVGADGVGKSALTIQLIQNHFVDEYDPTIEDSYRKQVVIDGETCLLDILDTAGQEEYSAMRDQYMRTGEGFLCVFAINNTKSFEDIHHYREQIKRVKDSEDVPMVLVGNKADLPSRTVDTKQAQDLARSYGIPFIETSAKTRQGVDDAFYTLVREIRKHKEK

Chain of His-tagged KRAS G12D protein (P01116 other isoform, or with tags, fused parts or gaps G12D): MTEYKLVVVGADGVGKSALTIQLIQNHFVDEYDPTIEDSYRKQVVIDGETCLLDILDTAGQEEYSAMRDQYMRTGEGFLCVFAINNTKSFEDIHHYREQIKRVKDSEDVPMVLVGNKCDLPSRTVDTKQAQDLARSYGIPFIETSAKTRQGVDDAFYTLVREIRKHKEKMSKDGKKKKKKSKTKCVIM

IC50 [1] | IC50 [2] | SMILES
1140 nM | 1050 nM | Cc1cc2[nH]ncc2c2c1CCCCO[C@@H](C)[C@H]1CN(CCO1)c1nc(OC[C@@]34CCCN3C[C@H](F)C4)nc3c(F)c-2ncc13 [Example 242, (16S,17R)-30-fluoro-24-(((2R,7aS)-2-fluorotetrahydro-1H-pyrrolo[1,2-a]pyrrol-7a(5H)-yl)methoxy)-9,16-dimethyl-15,18-dioxa-5,6,21,23,25,29-hexaazahexacyclo[24.3.1.1~17,21~.0~2,10~.0~3,7~.0~22,27~]hentriaconta-1(30),2,4,7,9,22,24,26,28-nonaene]
4480 nM | 4070 nM | Cc1cc2[nH]ncc2c2c1CCCCO[C@H](C)[C@@H]1CN(CCO1)c1nc(OC[C@@]34CCCN3C[C@H](F)C4)nc3c(F)c-2ncc13 [Example 243, (16R,17S)-30-fluoro-24-(((2R,7aS)-2-fluorotetrahydro-1H-pyrrolo[1,2-a]pyrrol-7a(5H)-yl)methoxy)-9,16-dimethyl-15,18-dioxa-5,6,21,23,25,29-hexaazahexacyclo[24.3.1.1~17,21~.0~2,10~.0~3,7~.0~22,27~]hentriaconta-1(30),2,4,7,9,22,24,26,28-nonaene]
27 nM | 30 nM | Cc1cc2[nH]ncc2c2c1CCCCO[C@@H](C)[C@@H]1CN(CCO1)c1nc(OC[C@@]34CCCN3C[C@H](F)C4)nc3c(F)c-2ncc13 [Example 244, (16S,17S)-30-fluoro-24-(((2R,7aS)-2-fluorotetrahydro-1H-pyrrolo[1,2-a]pyrrol-7a(5H)-yl)methoxy)-9,16-dimethyl-15,18-dioxa-5,6,21,23,25,29-hexaazahexacyclo[24.3.1.1~17,21~.0~2,10~.0~3,7~.0~22,27~]hentriaconta-1(30),2,4,7,9,22,24,26,28-nonaene]
583 nM | 344 nM | Fc1c2ncc3c(nc(OC[C@@]45CCCN4C[C@H](F)C5)nc13)N1CCC[C@@H](C1)c1coc(n1)CCCc1c(Cl)cc3[nH]ncc3c1-2 [Example 245, (18S)-9-chloro-31-fluoro-25-(((2R,7aS)-2-fluorotetrahydro-1H-pyrrolo[1,2-a]pyrrol-7a(5H)-yl)methoxy)-15-oxa-5,6,22,24,26,30,33-heptaazaheptacyclo[25.3.1.1~14,17~.1~18,22~.0~2,10~.0~3,7~.0~23,28~]tritriaconta-1(31),2,4,7,9,14(33),16,23,25,27,29-undecaene]
262 nM | 178 nM | Fc1c2ncc3c(nc(OC[C@@]45CCCN4C[C@H](F)C5)nc13)N1CCC[C@H](C1)Oc1nccc(n1)CCc1c(Cl)cc3[nH]ncc3c1-2 [Example 257, (19R)-9-chloro-32-fluoro-26-(((2R,7aS)-2-fluorotetrahydro-1H-pyrrolo[1,2-a]pyrrol-7a(5H)-yl)methoxy)-18-oxa-5,6,16,23,25,27,31,34-octaazaheptacyclo[26.3.1.1~13,17~.1~19,23~.0~2,10~.0~3,7~.0~24,29~]tetratriaconta-1(32),2,4,7,9,13(34),14,16,24,26,28,30-dodecaene]
19300 nM | 5900 nM | CN1C(=O)COCC[C@H]2CCc3cc4[nH]ncc4c(c32)-c2ncc3c(nc(OC[C@@]45CCCN4C[C@H](F)C5)nc3c2F)N2CCC[C@@H]1C2 [Example 278, (15R,22R)-34-fluoro-8-(((2R,7aS)-2-fluorotetrahydro-1H-pyrrolo[1,2-a]pyrrol-7a(5H)-yl)methoxy)-16-methyl-19-oxa-3,7,9,11,16,28,29-heptaazaheptacyclo[20.9.1.1~2,6~.1~11,15~.0~5,10~.0~25,32~.0~27,31~]tetratriaconta-1(31),2(34),3,5,7,9,25(32),26,29-nonaen-17-one]
